From US9079977B2, “Anti-trypanosomal peptides and uses thereof” (priority 2009, dated 2015)
Where a SMILES comes first, the peptide text is derived from it.

Columns and labels:
[1] = tested on: LNCaP prostate cancer cells; assay: Mammalian cell viability assay (trypan blue exclusion), Example 2; assay type: cell-based, human; details: 80-160 μM, 2 h at 37° C.
Protocol: (§1) Mammalian cell viability and hemolysis assays. Human embryonic kidney cells (HEK) (ATCC CRL-1573) and LNCaP prostate cancer cells (ATCC CRL-1740) were utilized for cell viability assays. Human embryonic kidney cells were cultured in Dulbecco's Modified Eagles Medium, high glucose (Thermo Scientific, cat #SH30243.01) with 10% fetal bovine serum at 37° C. and 5% CO2. Prostate cancer cells were cultured in RPM-1640 medium (Invitrogen, cat #A10491-01) with 10% fetal bovine serum at 37° C. and 5% CO2. In both cases, assays were performed by aliquoting cells into 96 well plates at approximately 60% confluency and allowing the cells to adhere for two hours. Cells were then incubated with serial dilutions of SHP-1, or the relevant control, in the corresponding media for two hours at 37° C. Cell viability was determined by the ability of live cells to exclude trypan blue. The cells were incubated with 0.1% trypan blue for 10 minutes and examined microscopically for cytoplasmic staining. The potential for SHP-1 to induce hemolysis was assayed by monitoring hemoglobin (Hb) release from freshly collected human erythrocytes that had been washed and incubated with SHP-1 in PBS. The Hb concentration of the supernatant was determined by the absorbance at 412 nm and compared to 100% hemolysis acquired by hypotonic lysis. […]

[2] = not told
Protocol: Calcein release assays. […] Briefly, liposomes were diluted 1:1000 into 50 mM Tris, pH 7.0 and calcein fluorescence was monitored at 513 nm when excited at 484 nm. The percent calcein release was calculated relative to the 100% fluorescence intensity, achieved by the addition of 0.01% Triton X-100.

[3] = tested on: Human embryonic kidney cells (HEK); assay: Mammalian cell viability assay (trypan blue exclusion), Example 2; assay type: cell-based; details: 80-160 μM, 2 h at 37° C.
Protocol: as §1

BSF T. b. brucei [4] = assay: Flow cytometry binding of FITC-labeled SHP; assay type: cell-based, Trypanosoma brucei brucei; details: 8 μM FITC-labeled peptide
Protocol: Flow Cytometry. Peptide binding to BSF T. b. brucei was monitored by flow cytometry. Binding assays were performed with 3×10^6 cells/ml in HMI 9 plus 10% fetal bovine serum at 25° C. FITC-labeled SHP-1 or SHP-3 was added to a final concentration of 8 μM and 50,000 cells were immediately counted on a CyAn ADP flow cytometer (Dako). Data were analyzed with FlowJo software (TreeStar Inc.).

BSF T. b. brucei [5] = assay: Trypanosome killing assay, Example 4; assay type: cell-based, Trypanosoma brucei brucei; details: two hour killing assay, 37° C.
Protocol: Trypanosome Killing Assays. Light microscopy based trypanosome killing assays were performed as previously described in detail (Harrington et al., 2010, J Biol Chem; 285(37):28659-66; Widener et al., 2007, PLoS Pathog; 3(9):1250-61; Shiflett et al., 2007, J Eukaryot Microbiol; 54(1):18-21; and Hajduk et al., 1989, J Biol Chem; 264(9):5210-7). Metacyclic T. b. brucei TREU 667 were obtained from dissection of the salivary glands of infected tsetse flies. Newly hatched Glossina morsitans morsitans (24-48 hours post eclosion) were fed defibrinated horse blood containing 2×10^6 ml^−1 trypanosomes and maintained at 25° C. in 75% relative humidity and fed maintenance blood meals three times per week. Following day 20-30, flies were harvested and salivary glands were dissected out and washed in HMI 9 media containing 10% fetal bovine serum. Metacyclic cells were collected via centrifugation and maintained in HMI 9 media with 10% fetal bovine serum at 37° C. in 5% CO2 until use. Killing assays were conducted with 1×10^4 cells/ml in HMI 9 media containing 10% fetal bovine serum. Trypanosoma vivax and T. congolense were grown from stabilites in donor ICR mouse (Harlan, United Kingdom). Parasites were harvested from mice by terminal exsanguination and passage of infected blood through a small anion exchange column. Cells were maintained in HMI 9 with 20% goat serum at 37° C. in 5% CO2 until use. Killing assays were performed with 1×10^7 cells/ml in HMI 9 media with either 20% goat serum, in the case of T. vivax and T congolense, and 10% fetal bovine serum, for T. b. brucei. Cells were incubated at 37° C. for 2 hours and dead parasites were scored visually. All were conducted in at least duplicate, and data points are the averages with standard deviations.

[6] = tested on: plasma membrane of live BSF T. b. brucei; assay: Anisotropy assays with DPH and TMA-DPH, Example 4; assay type: cell-based, Trypanosoma brucei brucei; details: 37° C.
Protocol: Anisotropy Assays. The plasma membrane rigidity of live T. b. brucei was determined by measuring the fluorescence depolarization of diphenyl-1,3,5-hexatriene p-toluenesulfonate (DPH) or 1-(4-trimethylammoniumphenyl)-6-diphenyl-1,3,5-hexatriene p-toluenesulfonate (TMA-DPH; Invitrogen T204). Cells were washed 3 times with and resuspended in PBS at a density of 3×10^6 cells/ml. The anisotropic probes were added to a final concentration of […] and allowed to intercalate into the cell membrane for one hour in the dark. Anisotropic values were acquired via the software function of a PerkinElmer Life Sciences LS55 spectrofluorometer. Samples were excited at 358 nm, and emission was read at 430 nm, both with 10-nm slit widths. Temperature was maintained at 37° C. by means of the PerkinElmer LS55 Biokinetics accessory. Data were corrected for light scattering with an unlabeled sample of cells, and anisotropy was calculated according to the equation r=(IVV−GIVH)/(IVV+2GIVH), where r is the anisotropy value, IVV is the emission intensity acquired with the excitation- and emission-polarizing filters set vertically, G is the instrument correction factor, and IVH is the emission intensity acquired with the excitation-polarizing filter set vertically and the emission-polarizing filter set horizontally. All assays were conducted at 37° C. […]

BSF T. b. brucei [7] = assay: Trypanosome motility by video microscopy, Example 4; assay type: cell-based, Trypanosoma brucei brucei; details: 40 μM peptide, 37° C.
Protocol: Trypanosome motility. All images and videos were acquired with an Axio Observer Z1 equipped with an AxioCam MRm controlled by AxioVision 4.6 software. Videos were acquired with live cells at a density of 1×10^7 cells/ml in HMI 9 media with 10% fetal bovine serum, incubated with 40 µM SHP-1 at 37° C. Videos were recorded at magnification 63× with 50-ms acquisition times. The motility of BSF trypanosomes was scored visually from video playback of trypanosomes scanned throughout 10 μl aliquots. Data is shown as the average of triplicate trials with standard deviations.

Compound	cell death of LNCaP cells (morphology, trypan blue exclusion) [1]	permeabilization of homogenous symmetric saturated PC liposomes [2]	permeabilization of symmetric 15:0 PC or DPPC liposomes above Tm [2]	cell death of HEK cells (morphology, trypan blue exclusion) [3]	binding to BSF T. brucei (BSF T. b. brucei [4])	killing of BSF T. brucei (trypanocidal activity) (BSF T. b. brucei [5])	rigidity of the interfacial region of the plasma membrane (TMA-DPH) [6]	motility phenotype (hyperactivation, constriction) (BSF T. b. brucei [7])
CC[C@H](C)[C@H](NC(=O)[C@@H](NC(=O)[C@H](C)NC(=O)CNC(=O)[C@H](CC(C)C)NC(=O)[C@H](CC(=O)O)NC(=O)[C@@H](N)CO)C(C)C)C(=O)N[C@@H](CO)C(=O)N[C@@H](CC(C)C)C(=O)N[C@@H](CC(C)C)C(=O)N[C@@H](CC(C)C)C(=O)N[C@@H](Cc1c[nH]c2ccccc12)C(=O)NCC(=O)N[C@@H](CCCNC(=N)N)C(=O)N[C@@H](CCC(N)=O)C(=O)N[C@@H](CC(C)C)C(=O)N[C@@H](Cc1ccccc1)C(=O)N[C@@H](C)C(=O)O [SHP-1, SDLGAVISLLLWGRQLFA] (H-SDLGAVISLLLWGRQLFA-OH; N-terminus and C-terminus assumed)	did not result in cell death	not permeabilized	resulted in sensitivity to permeabilization	did not result in cell death				
FHQIWAALLYFYGIILNSIY (amino acid sequence of small hydrophobic peptide -3 (SHP-3)) [Small hydrophobic peptide 3, derived from an apolipoprotein]					binding to BSF T. brucei	no killing was seen	increased the rigidity of the interfacial region of the plasma membrane	does cause initial hyperactivation of BSF T. b. brucei, however subsequent constriction of motility does not occur
